Active and inactive are the calls of the source. The calls are words filed in the database; no cut-off is given here.
Legend:
[1] = target: Tyrosine-protein kinase JAK1 (Homo sapiens, UniProt P23458); experiment: Inhibition of JAK1 (unknown origin) by radiometric assay
[2] = target: Tyrosine-protein kinase JAK2 (Homo sapiens, UniProt O60674); experiment: Inhibition of JAK2 (unknown origin) by radiometric assay
[3] = target: T1, Tyrosine-protein kinase JAK3 (Homo sapiens, UniProt P52333); experiment: Inhibition of JAK3 (unknown origin) by radiometric assay
T1 sequence (P52333 whole entry): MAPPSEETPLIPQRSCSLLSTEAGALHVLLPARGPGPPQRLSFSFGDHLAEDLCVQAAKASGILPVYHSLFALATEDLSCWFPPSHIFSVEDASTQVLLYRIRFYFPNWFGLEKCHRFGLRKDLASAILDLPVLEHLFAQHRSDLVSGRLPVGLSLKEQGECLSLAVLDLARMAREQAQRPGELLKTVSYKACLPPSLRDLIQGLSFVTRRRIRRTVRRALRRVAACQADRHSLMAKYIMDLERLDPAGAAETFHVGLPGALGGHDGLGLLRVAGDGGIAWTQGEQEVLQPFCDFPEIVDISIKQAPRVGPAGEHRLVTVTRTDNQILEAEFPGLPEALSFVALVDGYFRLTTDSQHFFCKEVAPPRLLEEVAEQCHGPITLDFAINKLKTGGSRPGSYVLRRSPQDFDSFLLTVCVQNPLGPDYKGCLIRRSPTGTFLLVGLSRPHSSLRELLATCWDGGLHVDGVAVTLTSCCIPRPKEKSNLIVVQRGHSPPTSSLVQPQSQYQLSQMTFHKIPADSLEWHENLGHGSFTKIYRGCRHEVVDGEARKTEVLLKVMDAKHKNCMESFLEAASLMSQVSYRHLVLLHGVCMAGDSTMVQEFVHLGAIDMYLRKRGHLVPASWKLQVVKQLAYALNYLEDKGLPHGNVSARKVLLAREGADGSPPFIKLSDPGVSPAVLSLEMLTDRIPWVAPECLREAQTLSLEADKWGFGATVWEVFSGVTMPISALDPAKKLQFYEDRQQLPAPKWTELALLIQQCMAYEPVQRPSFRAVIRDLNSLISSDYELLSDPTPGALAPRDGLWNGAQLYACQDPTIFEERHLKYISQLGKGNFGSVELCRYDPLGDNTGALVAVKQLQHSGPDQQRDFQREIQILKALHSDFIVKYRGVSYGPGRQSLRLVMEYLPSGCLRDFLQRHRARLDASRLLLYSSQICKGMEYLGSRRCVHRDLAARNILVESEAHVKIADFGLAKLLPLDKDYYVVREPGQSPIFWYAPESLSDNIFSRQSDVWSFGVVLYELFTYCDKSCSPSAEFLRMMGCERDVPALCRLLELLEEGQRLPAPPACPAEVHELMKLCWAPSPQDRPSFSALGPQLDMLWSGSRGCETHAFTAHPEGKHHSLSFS

[4] = target: Casein kinase I isoform delta (Homo sapiens, UniProt P48730); experiment: Inhibition of CK1-delta (unknown origin) by radiometric assay
[5] = target: T2, Mitogen-activated protein kinase 14 (Homo sapiens, UniProt Q16539); experiment: Inhibition of p38alpha MAPK in TNF-alpha-induced HUVEC assessed as downregulation of VCAM-1 mRNA expression at 10 uM incubated for 4 hrs by RT-PCR analysis; assay type: cell-based
[6] = target: T2, Mitogen-activated protein kinase 14; experiment: Inhibition of p38alpha MAPK (unknown origin) by radiometric assay
[7] = target: T2, Mitogen-activated protein kinase 14; experiment: Inhibition of p38alpha MAPK in TNF-alpha-induced HUVEC assessed as downregulation of COX-2 mRNA expression at 10 uM incubated for 4 hrs by RT-PCR analysis; assay type: cell-based
[8] = target: T2, Mitogen-activated protein kinase 14; experiment: Inhibition of p38alpha MAPK in TNF-alpha-induced HUVEC assessed as downregulation of IL-6 mRNA expression at 10 uM incubated for 4 hrs by RT-PCR analysis; assay type: cell-based
Homo sapiens [9] = species on record: Homo sapiens; experiment: Selectivity ratio of IC50 for p38alpha MAPK (unknown origin) to IC50 for CK1-delta (unknown origin)
Homo sapiens [10] = species on record: Homo sapiens; experiment: Selectivity ratio of IC50 for p38alpha MAPK (unknown origin) to IC50 for JAK2 (unknown origin)

Chain of Tyrosine-protein kinase JAK2 (O60674 whole entry): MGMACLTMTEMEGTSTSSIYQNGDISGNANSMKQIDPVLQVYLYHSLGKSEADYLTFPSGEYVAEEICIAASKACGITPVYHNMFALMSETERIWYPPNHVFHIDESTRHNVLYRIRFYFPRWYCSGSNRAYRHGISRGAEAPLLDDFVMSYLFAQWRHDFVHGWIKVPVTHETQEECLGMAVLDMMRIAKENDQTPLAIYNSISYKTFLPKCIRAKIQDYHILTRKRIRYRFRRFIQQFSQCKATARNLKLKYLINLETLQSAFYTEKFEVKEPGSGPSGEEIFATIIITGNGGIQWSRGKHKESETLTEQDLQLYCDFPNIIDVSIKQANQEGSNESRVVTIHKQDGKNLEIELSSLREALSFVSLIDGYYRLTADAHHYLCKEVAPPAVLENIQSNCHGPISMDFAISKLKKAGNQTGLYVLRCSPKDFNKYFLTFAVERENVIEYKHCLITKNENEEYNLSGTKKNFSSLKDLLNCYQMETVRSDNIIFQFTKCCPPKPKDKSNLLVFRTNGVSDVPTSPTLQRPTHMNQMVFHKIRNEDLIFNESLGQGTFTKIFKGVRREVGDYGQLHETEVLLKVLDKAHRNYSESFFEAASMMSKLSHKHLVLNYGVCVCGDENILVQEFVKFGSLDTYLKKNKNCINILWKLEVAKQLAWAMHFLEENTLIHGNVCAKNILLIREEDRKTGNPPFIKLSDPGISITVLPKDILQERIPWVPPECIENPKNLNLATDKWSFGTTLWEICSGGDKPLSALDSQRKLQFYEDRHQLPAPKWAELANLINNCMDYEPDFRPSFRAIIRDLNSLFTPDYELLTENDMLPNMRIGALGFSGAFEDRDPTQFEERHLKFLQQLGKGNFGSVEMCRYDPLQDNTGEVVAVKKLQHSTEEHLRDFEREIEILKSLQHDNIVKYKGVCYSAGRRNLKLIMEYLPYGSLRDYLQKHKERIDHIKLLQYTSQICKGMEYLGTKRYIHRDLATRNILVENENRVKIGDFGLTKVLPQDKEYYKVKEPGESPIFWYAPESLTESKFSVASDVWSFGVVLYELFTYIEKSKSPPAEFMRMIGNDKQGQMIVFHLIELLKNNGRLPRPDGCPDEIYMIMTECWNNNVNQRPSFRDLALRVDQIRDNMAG
Chain of Tyrosine-protein kinase JAK1 (P23458 whole entry): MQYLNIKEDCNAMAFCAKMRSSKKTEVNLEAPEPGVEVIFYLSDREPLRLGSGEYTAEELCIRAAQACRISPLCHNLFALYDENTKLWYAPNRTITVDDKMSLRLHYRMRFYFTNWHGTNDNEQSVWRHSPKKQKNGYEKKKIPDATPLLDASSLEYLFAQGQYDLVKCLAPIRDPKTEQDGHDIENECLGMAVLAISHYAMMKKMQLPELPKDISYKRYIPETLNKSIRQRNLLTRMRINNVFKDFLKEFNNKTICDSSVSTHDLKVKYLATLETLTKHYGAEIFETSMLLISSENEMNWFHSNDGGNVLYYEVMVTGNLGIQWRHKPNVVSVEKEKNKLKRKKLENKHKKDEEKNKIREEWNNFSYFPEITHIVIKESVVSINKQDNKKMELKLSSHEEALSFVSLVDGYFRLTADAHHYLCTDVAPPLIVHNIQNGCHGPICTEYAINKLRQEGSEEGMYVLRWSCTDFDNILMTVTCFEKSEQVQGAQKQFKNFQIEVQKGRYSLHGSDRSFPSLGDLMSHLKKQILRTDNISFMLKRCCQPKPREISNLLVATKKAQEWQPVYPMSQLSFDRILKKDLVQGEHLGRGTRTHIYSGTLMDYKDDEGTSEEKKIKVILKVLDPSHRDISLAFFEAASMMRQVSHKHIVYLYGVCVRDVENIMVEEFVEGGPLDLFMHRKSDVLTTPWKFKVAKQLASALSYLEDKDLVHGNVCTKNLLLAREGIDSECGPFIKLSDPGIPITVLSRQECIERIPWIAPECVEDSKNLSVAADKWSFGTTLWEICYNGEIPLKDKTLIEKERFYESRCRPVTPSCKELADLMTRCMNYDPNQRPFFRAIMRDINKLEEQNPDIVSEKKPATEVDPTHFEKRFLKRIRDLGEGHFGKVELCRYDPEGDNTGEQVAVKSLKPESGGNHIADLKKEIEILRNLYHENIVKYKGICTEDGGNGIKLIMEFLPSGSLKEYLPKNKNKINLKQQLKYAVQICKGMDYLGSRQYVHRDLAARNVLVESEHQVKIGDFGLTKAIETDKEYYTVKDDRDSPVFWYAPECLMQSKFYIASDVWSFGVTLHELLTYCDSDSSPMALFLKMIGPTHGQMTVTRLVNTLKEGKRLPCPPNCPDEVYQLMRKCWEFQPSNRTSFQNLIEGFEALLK
Chain of Casein kinase I isoform delta (P48730 whole entry, canonical isoform): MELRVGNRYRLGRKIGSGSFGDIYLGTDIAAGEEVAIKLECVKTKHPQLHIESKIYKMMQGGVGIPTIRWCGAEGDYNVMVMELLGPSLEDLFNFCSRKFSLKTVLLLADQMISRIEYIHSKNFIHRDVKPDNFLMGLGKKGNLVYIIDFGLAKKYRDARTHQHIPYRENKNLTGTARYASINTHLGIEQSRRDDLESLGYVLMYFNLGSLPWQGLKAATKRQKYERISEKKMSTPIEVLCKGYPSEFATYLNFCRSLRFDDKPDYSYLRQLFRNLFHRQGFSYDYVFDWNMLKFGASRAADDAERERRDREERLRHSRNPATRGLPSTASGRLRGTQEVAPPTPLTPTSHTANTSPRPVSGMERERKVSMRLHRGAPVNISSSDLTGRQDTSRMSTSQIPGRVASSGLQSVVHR
T2 sequence (Q16539 whole entry): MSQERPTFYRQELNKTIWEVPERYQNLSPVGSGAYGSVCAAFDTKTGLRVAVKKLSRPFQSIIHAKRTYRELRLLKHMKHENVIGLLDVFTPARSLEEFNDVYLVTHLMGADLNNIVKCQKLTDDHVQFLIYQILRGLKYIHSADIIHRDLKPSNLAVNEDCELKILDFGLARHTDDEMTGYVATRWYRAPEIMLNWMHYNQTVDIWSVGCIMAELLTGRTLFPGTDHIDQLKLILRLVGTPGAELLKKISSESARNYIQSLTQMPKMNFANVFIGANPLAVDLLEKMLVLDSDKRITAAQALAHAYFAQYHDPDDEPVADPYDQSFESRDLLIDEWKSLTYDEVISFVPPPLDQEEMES

O=c1cc(-c2[nH]c(C3CCNCC3)nc2-c2ccc(F)cc2)cc[nH]1
IC50 [1]: 16.9 µM
IC50 [2]: 6.62 µM
IC50 [3]: 11.8 µM
IC50 [4]: 12 µM
inhibition [5]: inactive
IC50 [6]: 1140 nM
inhibition [7]: inactive
inhibition [8]: inactive

C#Cc1ccn2c(-c3ccnc(SC)n3)c(-c3ccc(F)cc3)nc2n1
IC50 [1]: > 100 µM
IC50 [2]: > 100 µM
IC50 [3]: > 100 µM
IC50 [4]: > 100 µM
IC50 [6]: 2510 nM

CSc1nccc(-c2[nH]c(-c3ccc(O)cc3)nc2-c2ccc(F)cc2)n1
IC50 [1]: > 100 µM
IC50 [2]: > 100 µM
IC50 [3]: 78.3 µM
IC50 [4]: 5.96 µM
IC50 [6]: 95.5 nM

CSc1nccc(-c2c(-c3ccc(F)cc3)nc3nc(-c4cn(CC(=O)O)nn4)ccn23)n1
IC50 [1]: > 100 µM
IC50 [2]: > 100 µM
IC50 [3]: > 100 µM
IC50 [4]: > 100 µM
IC50 [6]: 250 nM

Cn1c(-c2cn(-c3ccc(C(=O)O)cc3)nn2)nc(-c2ccc(F)cc2)c1-c1ccncc1
IC50 [1]: > 100 µM
IC50 [2]: > 100 µM
IC50 [3]: > 100 µM
IC50 [4]: 1.6 µM
IC50 [6]: 166 nM

C#Cc1ccc(-c2nc(-c3ccc(F)cc3)c(-c3cc[nH]c(=O)c3)[nH]2)cc1
IC50 [1]: > 10 µM
IC50 [2]: 14.3 µM
IC50 [3]: > 100 µM
IC50 [4]: 19.9 µM
IC50 [6]: 9390 nM

C[C@H](Nc1nccc(-c2c(-c3ccc(F)cc3)nc3nc(N)ccn23)n1)c1ccccc1
IC50 [1]: > 100 µM
IC50 [2]: > 100 µM
IC50 [3]: > 100 µM
IC50 [4]: > 100 µM
IC50 [6]: 8.5 nM

Cn1c(-c2cn(-c3cccc(C(=O)O)c3)nn2)nc(-c2ccc(F)cc2)c1-c1ccncc1
IC50 [1]: > 100 µM
IC50 [2]: > 100 µM
IC50 [3]: > 100 µM
IC50 [4]: 0.089 µM

Cn1c(-c2cn(CCP(=O)(O)O)nn2)nc(-c2ccc(F)cc2)c1-c1ccncc1
IC50 [1]: > 100 µM
IC50 [2]: > 100 µM
IC50 [3]: > 100 µM
IC50 [4]: 0.225 µM

O=C(O)c1ccc(-c2nc(-c3ccc(F)cc3)c(-c3cc[nH]c(=O)c3)[nH]2)cc1
IC50 [1]: 14.1 µM
IC50 [2]: 0.274 µM
IC50 [3]: 3.9 µM
IC50 [4]: 24.8 µM
inhibition [5]: inactive
IC50 [6]: 2940 nM
inhibition [7]: inactive
Ratio IC50 (Homo sapiens [9]): 10
Ratio IC50 (Homo sapiens [10]): 10
inhibition [8]: inactive

Oc1ccc(-c2nc(-c3ccncc3)c(-c3ccc(F)cc3)[nH]2)cc1 [SB-202190]
IC50 [1]: > 100 µM
IC50 [2]: > 100 µM
IC50 [3]: > 100 µM
IC50 [4]: 0.188 µM

CCOP(=O)(CCn1cc(-c2ccc(-c3nc(-c4ccc(F)cc4)c(-c4cc[nH]c(=O)c4)[nH]3)cc2)nn1)OCC
IC50 [1]: 23.9 µM
IC50 [2]: 4.2 µM
IC50 [3]: 37.4 µM
IC50 [4]: 44.3 µM
IC50 [6]: > 100000 nM

C#Cc1ccc(-c2nc(-c3ccc(F)cc3)c(-c3ccnc(SC)n3)[nH]2)cc1
IC50 [1]: > 100 µM
IC50 [2]: > 100 µM
IC50 [3]: > 100 µM
IC50 [4]: 66.3 µM
IC50 [6]: 82100 nM

CSc1nccc(-c2c(-c3ccc(F)cc3)nc3nc(-c4cn(CCP(=O)(O)O)nn4)ccn23)n1
IC50 [1]: > 100 µM
IC50 [2]: > 100 µM
IC50 [3]: > 100 µM
IC50 [4]: > 100 µM
IC50 [6]: > 100000 nM

O=c1cc(-c2[nH]c(-c3ccc(-c4cn(CCP(=O)(O)O)nn4)cc3)nc2-c2ccc(F)cc2)cc[nH]1
IC50 [1]: > 100 µM
IC50 [3]: > 100 µM
IC50 [4]: 10.8 µM
IC50 [6]: > 100000 nM

CCOC(=O)Cn1cc(-c2ccc(-c3nc(-c4ccc(F)cc4)c(-c4cc[nH]c(=O)c4)[nH]3)cc2)nn1
IC50 [1]: 80.1 µM
IC50 [2]: 0.352 µM
IC50 [3]: 3.03 µM
IC50 [4]: 24.5 µM
IC50 [6]: 32900 nM

Cn1c(-c2c[nH]nn2)nc(-c2ccc(F)cc2)c1-c1ccncc1
IC50 [1]: > 100 µM
IC50 [2]: > 100 µM
IC50 [3]: > 100 µM
IC50 [4]: 0.202 µM
IC50 [6]: 210 nM

Cn1c(-c2cn(CCO)nn2)nc(-c2ccc(F)cc2)c1-c1ccncc1
IC50 [1]: > 100 µM
IC50 [2]: > 100 µM
IC50 [3]: > 100 µM
IC50 [4]: 0.24 µM
IC50 [6]: 783 nM

Cn1c(-c2cn([C@H]3CCNC[C@@H]3F)nn2)nc(-c2ccc(F)cc2)c1-c1ccncc1
IC50 [1]: > 100 µM
IC50 [2]: > 100 µM
IC50 [3]: > 100 µM
IC50 [4]: 0.437 µM

O=c1cc(-c2[nH]c(-c3ccc(-c4nnn[nH]4)cc3)nc2-c2ccc(F)cc2)cc[nH]1
IC50 [1]: 1.68 µM
IC50 [2]: 0.061 µM
IC50 [3]: 0.783 µM
IC50 [4]: 12.1 µM
IC50 [6]: 2530 nM

CCOP(=O)(CCn1cc(-c2nc(-c3ccc(F)cc3)c(-c3ccncc3)n2C)nn1)OCC
IC50 [1]: > 100 µM
IC50 [2]: > 100 µM
IC50 [3]: > 100 µM
IC50 [4]: 3.1 µM
IC50 [6]: 2480 nM

O=c1cc(-c2[nH]c(-c3ccc(-c4cn(CCO)nn4)cc3)nc2-c2ccc(F)cc2)cc[nH]1
IC50 [1]: > 10 µM
IC50 [2]: 0.5 µM
IC50 [3]: 10.6 µM
IC50 [4]: 17.9 µM
IC50 [6]: 18600 nM

O=c1cc(-c2[nH]c(-c3ccc(O)cc3)nc2-c2ccc(F)cc2)cc[nH]1
IC50 [1]: 54.6 µM
IC50 [2]: 0.911 µM
IC50 [3]: 14.4 µM
IC50 [4]: 19.7 µM
inhibition [5]: inactive
IC50 [6]: 4960 nM
inhibition [7]: inactive
inhibition [8]: inactive

CCOP(=O)(CCn1cc(-c2ccn3c(-c4ccnc(SC)n4)c(-c4ccc(F)cc4)nc3n2)nn1)OCC
IC50 [1]: > 100 µM
IC50 [2]: > 100 µM
IC50 [3]: > 100 µM
IC50 [4]: 21.4 µM
IC50 [6]: 12000 nM

O=C(O)c1cc(-c2nc(-c3ccc(F)cc3)c(-c3cc[nH]c(=O)c3)[nH]2)ccc1O
IC50 [1]: > 100 µM
IC50 [2]: 3.71 µM
IC50 [3]: 21.4 µM
IC50 [4]: 21.2 µM
inhibition [5]: inactive
IC50 [6]: 6810 nM
inhibition [7]: inactive
inhibition [8]: inactive

Cn1c(-c2cn([C@@H]3[C@@H](O)[C@H](O)[C@@H](CO)O[C@H]3O)nn2)nc(-c2ccc(F)cc2)c1-c1ccncc1
IC50 [1]: > 100 µM
IC50 [2]: > 100 µM
IC50 [3]: > 100 µM
IC50 [4]: 0.439 µM
IC50 [6]: 1020 nM

CSc1nccc(-c2c(-c3ccc(F)cc3)nc3nc(N)ccn23)n1
IC50 [1]: > 100 µM
IC50 [2]: > 100 µM
IC50 [3]: > 100 µM
IC50 [4]: > 100 µM
IC50 [6]: 120 nM
